Experimental data as given in patent US11591326B2, “Inhibitors of protein arginine methyltransferase 5 (PRMT5), pharmaceutical products thereof, and methods thereof” (PHARMABLOCK SCIENCES (NANJING), INC., priority 2018, dated 2023).
Like-named read-outs stand apart in the source and are kept apart here.

Tests used:
Format in all cases: cell-based
[1] = test system: Mantle Cell Lymphoma Z-138 cell; test: Cell proliferation inhibition, Z-138 (CCK8); settings: Homo sapiens, Z-138, 96 h, Z-138, incubated 4 days
Text: (§1) Materials and Cell Lines: Z-138, U251, and MIA PaCa2 cells were purchased from ATCC (American Type Culture Collection, Manassas, Va.) and Chinese Academy of Science (Shanghai, China). Iscove's Modified Dulbecco's Medium (IMDM), Dulbecco's Modified Eagle Medium (DMEM), penicillin-streptomycin, heat inactivated fetal bovine serum (FBS), and horse serum was purchased from ThermoFisher, Waltham, Mass., USA. Corning 96- and 384-well cell culture plates were purchased from ThermoFisher, Waltham, Mass., USA. Cell-Titer Glo® was purchased from Promega Corporation, Madison, Wis., USA.
In order to evaluate the inhibitory ability of compounds synthesized on the proliferation of the Mantle Cell Lymphoma Z-138 cell, exponentially growing cells were seeded in the media of IMDM with 10% horse serum and 1% penicillin-streptomycin at a concentration of 30000 cells/ml in a 96-well plate with 100 ul per well and incubated overnight at 37° C., 5% CO2 incubator. Compounds were prepared as 10-point, 3-fold serial dilutions in DMSO, beginning at 6 mM. 1 μl of DMSO solutions from the compound stock plates were added to 99 ul of cell culture media (final top concentration of compound in the assay was 30 uM and the final concentration of DMSO was 0.5%). 100 μL of compound solutions in media were added to each well of Z-138 cell plates. After adding compound solutions, assay plates were incubated for 4 days at 37° C., 5% CO2. Cell viability was measured using the Cell Counting Kit-8 (CCK8) obtained from the Beyotime Biotehnology, Shanghai, China. 20 ul of CCK8 reagent was added to each well of the Z-138 assay plate which was incubated at 37° C. for 2 hours. O.D. at 450 nm was read with the FlexStation 3 microplate reader (Molecular Devices, Sunnyvale, Calif. 94089 USA). The concentrations of compounds inhibiting cell viability by 50% (IC50 values) were determined using a sigmoidal dose-response model (variable slopes, four parameters) in Prism 7 (La Jolla, Calif.).

[2] = test system: Pancreatic Carcinoma MIA PaCa-2 cell; test: Cell proliferation inhibition, MIA PaCa-2 (CellTiter-Glo); settings: Homo sapiens, MIA PaCa-2, incubated for 12 days (read after 8 or 12 days), read-out: IC50 (μM) MIA PaCa2
Text: as §1
In order to evaluate the inhibitory ability of compounds synthesized on the proliferation of the Pancreatic Carcinoma MIA PaCa-2 cell, exponentially growing cells were seeded in the culture media of DMEM with 10% FBS, 2.5% horse serum, 1 mM of Sodium Pyruvate and 1% penicillin-streptomycin at a concentration of 2500 cells/ml in a 384-well plate with 20 ul per well and incubated overnight at 37° C., 5% CO2 incubator. Compounds were prepared as 10-point, 3-fold serial dilutions in DMSO, beginning at 6 mM. 1 μl of DMSO solutions from the compound stock plates were added to 99 ul of cell media (final top concentration of compound in the assay was 30 uM and the final concentration of DMSO was 0.5%). 20 μL of compound solutions in media were added to each well of MIA PaCa-2 cell plates. After adding compound solutions, assay plates were incubated for 12 days at 37° C., 5% CO2. During this incubation period, cell media was changed every 4 days. After removing old media from cell plates, 40 ul of media with testing compounds dissolved, which were prepared by adding 1 ul of compound DMSO serial solutions to 199 ul of cell media, were added to the assay plates with the same layout as they were initially prepared. After 8 or 12 days, cell viability was measured using the CellTiter-Glo assay kit from Promega (Madison, Wis., USA) by quantitating the ATP present in the cell cultures. 20 μL of CellTiter-Glo reagent was added to each well of the cell plates. Luminescence was read after 10 minute of incubation with the Envision multiple plate reader from PerkinElmer (Waltham, Mass., USA). The concentrations of compounds inhibiting cell viability by 50% (IC50 values) were determined using a sigmoidal dose-response model (variable slopes, four parameters) in Prism 7 (La Jolla, Calif., USA).

MCF-7 = test: Breast cancer panel proliferation inhibition, MCF-7; settings: Homo sapiens
Description: (§2) Inhibitory ability of compounds synthesized on the proliferation of three panels of cancer cell lines, including 5 breast cancer, 6 liver cancer, and 3 lung cancer cell lines were evaluated. Exponentially growing cells were seeded in the media of choice at various cell densities in 384-well plates with 20 ul per well and incubated overnight at 37° C., 5% CO2 incubator. Compounds were prepared as 10-point, 3-fold serial dilutions in DMSO, beginning at 6 mM. 1 μl of DMSO solutions from the compound stock plates were added to 99 ul of cell media (final top concentration of compound in the assay was 30 uM and the final concentration of DMSO was 0.5%). 20 μL of compound solutions in media were added to each well of plates with cells seeded. After adding compound solutions, assay plates were incubated for 8 and 12 days, respectively, at 37° C., 5% CO2. During this incubation period, cell media was changed every 4 days. After removing old media from cell plates, 40 ul of media with testing compounds dissolved, which were prepared by adding 1 ul of compound DMSO serial solutions to 199 ul of cell media, were added to the assay plates with the same layout as they were initially prepared. After 8 or 12 days, cell viability was measured using the CellTiter-Glo assay kit from Promega (Madison, Wis., USA) by quantitating the ATP present in the cell cultures. 20 μL of CellTiter-Glo reagent was added to each well of the cell plates. Luminescence was read after 10 minute of incubation with the Envision multiple plate reader from PerkinElmer (Waltham, Mass., USA). The concentrations of compounds inhibiting cell viability by 50% (IC50 values) were determined using a sigmoidal dose-response model (variable slopes, four parameters) in Prism 7 (La Jolla, Calif., USA).

MDA-MB-453 = test: Breast cancer panel proliferation inhibition, MDA-MB-453; settings: Homo sapiens
Description: as §2

MDA-MB-468 = test: Breast cancer panel proliferation inhibition, MDA-MB-468; settings: Homo sapiens
Description: as §2

MHCC-97H = test: Liver cancer panel proliferation inhibition, MHCC-97H; settings: Homo sapiens, MHCC97H
Description: as §2

A-549 = test: Lung cancer panel proliferation inhibition, A-549; settings: Homo sapiens
Description: as §2

EBC-1 = test: Lung cancer panel proliferation inhibition, EBC-1; settings: Homo sapiens
Description: as §2

[3] = MCF7, 192 h, MCF-7, 8 days, read-out: IC50 (μM) 8 days
[4] = MCF7, 288 h, MCF-7, 12 days, read-out: IC50 (μM) 12 days
[5] = 192 h, MDA-MB-453, 8 days, read-out: IC50 (μM) 8 days
[6] = 288 h, MDA-MB-453, 12 days, read-out: IC50 (μM) 12 days
[7] = 192 h, MDA-MB-468, 8 days, read-out: IC50 (μM) 8 days
[8] = 288 h, MDA-MB-468, 12 days, read-out: IC50 (μM) 12 days
[9] = 192 h, 8 days, read-out: IC50 (μM) 8 days
[10] = 288 h, 12 days, read-out: IC50 (μM) 12 days
[11] = A549, 192 h, A-549, 8 days, read-out: IC50 (μM) 8 days
[12] = A549, 288 h, A-549, 12 days, read-out: IC50 (μM) 12 days
[13] = 192 h, EBC-1, 8 days, read-out: IC50 (μM) 8 days
[14] = 288 h, EBC-1, 12 days, read-out: IC50 (μM) 12 days

| IC50 [1] | IC50 [2] | IC50 (MCF-7; [3]) | IC50 (MCF-7; [4]) | IC50 (MDA-MB-453; [5]) | IC50 (MDA-MB-453; [6]) | IC50 (MDA-MB-468; [7]) | IC50 (MDA-MB-468; [8]) | IC50 (MHCC-97H; [9]) | IC50 (MHCC-97H; [10]) | IC50 (A-549; [11]) | IC50 (A-549; [12]) | IC50 (EBC-1; [13]) | IC50 (EBC-1; [14]) | SMILES |
| --- | --- | --- | --- | --- | --- | --- | --- | --- | --- | --- | --- | --- | --- | --- |
| 0.014 µM | 0.13 µM | 0.016 µM | 0.026 µM | 0.28 µM | 0.19 µM | 0.042 µM | 0.0041 µM | 0.02 µM | 0.029 µM | 0.064 µM | 0.037 µM | 0.025 µM | 0.03 µM | CC(=O)N1CCC(Nc2ccc3c(c2)C(=O)N(C[C@H](O)CN2CCc4ccccc4C2)CC3)CC1 [Compound 24a, (R)-7-((1-acetylpiperidin-4-yl)amino)-2-(3-(3,4-dihydroisoquinolin-2(1H)-yl)-2-hydroxypropyl)-3,4-dihydroisoquinolin-1(2H)-one] |
| 0.014 µM | 0.114 µM | 0.025 µM | 0.021 µM | 0.14 µM | 0.06 µM | 0.022 µM | 0.0038 µM | 0.023 µM | 0.024 µM | 0.13 µM | 0.028 µM | 0.028 µM | 0.031 µM | CC(=O)N1CCC(Nc2ccc3c(c2)C(=O)N(C[C@H](O)CN2CCc4ccccc4C2)CCO3)CC1 [Compound 52a, (R)-7-((1-acetylpiperidin-4-yl)amino)-4-(3-(3,4-dihydroisoquinolin-2(1H)-yl)-2-hydroxypropyl)-3,4-dihydrobenzo[f][1,4]oxazepin-5(2H)-one] |
| 0.07 µM | 0.15 µM | – | 0.029 µM | 1.22 µM | 0.16 µM | 0.044 µM | 0.0074 µM | 0.089 µM | 0.086 µM | 0.096 µM | 0.066 µM | 0.062 µM | 0.057 µM | CC(=O)N1CCC(Nc2cc(C(=O)NC[C@H](O)CN3CCc4ccccc4C3)ncn2)CC1 [Compound C3, reference compound] |
